# Assay results from patent EP4335452A1, “PHARMACEUTICAL COMPOSITION FOR ENHANCING ANTICANCER EFFECT OF ANTICANCER DRUG” (L-Base Co., Ltd., priority 2021, dated 2024).
# Ends that are not written are not given here.
# How the values were obtained:
# [1] = test system: lung cancer cell line H1975; test: MTT assay, cell viability, lung cancer cell line H1975; type: cell-based; conditions: Ac-AQTGTGKT 10 µM alone, 48 hours, FIG. 1C
# Procedure: (§1) Specifically, cells were seeded at 2 × 10^3/100 µl per well on a 96-well plate, and after culturing for 24 hours, the compound according to the present invention was administered; 4 hours later, anticancer drugs were treated to each cancer cell. The treatment concentration and treatment time of the compound and anticancer drug are specifically described in the embodiment. After completing the treatment of the compound and anticancer drug, CellTiter-96® reagent (Promega Co., USA) was reacted at 5% CO2, 37°C after adding 10 µl per well. After 3 hours, absorbance was measured at 490 nm using a spectrophotometer (SPECTROstar^Nano, BMG).
# [2] = test system: lung cancer cell line H1975; test: as above; type: cell-based; conditions: 48 hours
# [3] = test system: H1975/OR; test: MTT assay, cell viability, H1975/OR; type: cell-based; conditions: Osimertinib 2.5 µM alone, 68 hours, FIG. 1G
# Procedure: as §1
# [4] = test system: H820 lung cancer cell line; test: Heterotransplant lung cancer animal model (H820), tumor growth; type: in vivo; conditions: H820 nude mice; Osimertinib single administration, 2.5 mpk orally daily; FIG. 6A
# Procedure: The test substances were administered intravenously and orally 7 times at 2-day intervals.
# Nude mice transplanted with H820 lung cancer cell line, an animal model of lung cancer described in the "Experimental Materials and Methods," was treated 7 times at a two-day interval for 14 days with 3-PhPh-[…] at a dose of 10 mpk, and Osimertinib was orally administered daily at 2.5 mpk. Then, the growth of the tumor was compared.
# [5] = test system: H1975 cell line; test: Heterotransplant lung cancer resistance animal model (H1975), tumor growth after Osimertinib resistance; type: in vivo, Balb/C nude mice
# Procedure: H1975 cells were mixed with matrigel in a 1:1 ratio at a concentration of 5 × 10^6 cells/mouse, and each was subcutaneously inoculated at 200µl into the flank of the mouse once. After the inoculation, it was confirmed that the volume of the formed tumor reached 70~130 mm^3, and then random grouping was carried out. After the grouping, Osimertinib was administered orally every day, and after the growth of the tumor was inhibited, the point of re-growth was identified and the co-administration with the test substance was started. The test substances were administered intravenously 7 times at 2-day intervals.
# After inoculating the H1975 cell line in 4-week-old female Balb/C nude mice, the presence and growth of the tumor were observed and the short and long axes of the tumor were measured to calculate the volume. When the volume of the tumor reached 70-120 mm^3, the groups were randomly separated and PBS, the negative control group, and Osimertinib at 5 mpk were orally administered daily.
# The first day of administration was set as day 1, and the volume of the tumor was measured twice a week.
# [6] = test system: breast cancer cell line HCC1937; test: MTT assay, cell viability, breast cancer cell line HCC1937; type: cell-based; conditions: Olaparib 2.5 µM alone, 24 hours, FIG. 4B
compound,measurement,setting,value
Ac-AQTGTGKT,cell viability decreased compared to the control group,[1],about 14%
C=CC(=O)Nc1cc(Nc2nccc(-c3cn(C)c4ccccc34)n2)c(OC)cc1N(C)CCN(C)C [Osimertinib],cell viability decreased compared to the control group,"[2]; Osimertinib 1 µM alone, FIG. 1B",about 5%
same,cell viability decreased compared to the control group,[3],about 7%
same,tumor growth reduced compared to the control group (PBS administered group),[4],46%
same,size of the tumor on the day of termination of administration (average),"[5]; H1975, after Osimertinib resistance, Osimertinib 5 mpk orally daily + PBS intravenously at a two-day interval, FIG. 6B",692.6 mm^3
same,tumor viability rate (tumor size on the 28th day versus the last measured tumor size),"[5]; H1975 Balb/C nude mice, Osimertinib 5 mpk orally daily, regrowth from the 24th day, judged as acquired resistance",over 50%
O=C(c1cc(Cc2n[nH]c(=O)c3ccccc23)ccc1F)N1CCN(C(=O)C2CC2)CC1 [Olaparib],decrease in cell viability compared to the control group,[6],no decrease in cell viability
"Nc1nc2[nH]cc(CCc3ccc(C(=O)N[C@@H](CCC(=O)O)C(=O)O)cc3)c2c(=O)[nH]1 [Alimta, Alimta (Pemetrexed)]",cell viability decreased compared to the control group,"[2]; Alimta 0.2 µM alone, FIG. 1E",about 6%
